According to patent publication EP0359821A1, “METHOD OF STERILIZING PLANT ANTHERS” (priority 1988, dated 1989):
Read-outs that look alike come from different tables or passages of the source.

Experiments:
[1] = in vivo
[2] = Toxicity in animal test (result in words)
[3] = tested on: Tetraploider Roggen Sorte Jubileinaya; assay: Field trial of gametocidal activity, tetraploid rye Jubileinaya; details: 1% aqueous emulsion, 10 kg/ha
[4] = tested on: Sonnenblume Sorte Peredovik; assay: Field trial of pollen sterilisation, sunflower Peredovik; format: in vivo; details: 0,2% aqueous emulsion, 1,2 kg/ke (so in the source)
Description: Pflanzen der Sonnenblume Sorte Peredovik werden in der V. oder VI.
Der Verbrauch an Sterilisationsmittel beträgt 1,2 kg/ke.

[5] = tested on: Hirse Sorte K-9693 Kormovoe 1; assay: Field trial of gametocidal activity, millet K-9693 Kormovoe 1; details: 1% aqueous emulsion, 10 kg/ha; for Anzahl von Körnern der Rispe bei freier Bestäubung / Anzahl von Körnern der Rispe im Isolator / Prozentsatz der Sterilität: V. or VI. period; for Prozentsatz des Ansetzens bei freier Bestäubung: control = 100
in vivo [6] = details: rat
Sonnenblume Linie VK 119 = assay: Field trial of pollen sterilisation, sunflower line VK 119; details: 0,2% aqueous emulsion, 1,2 kg/ha
[7] = tested on: Diploider Roggen Sorte Chulpan; assay: Field trial of gametocidal activity, diploid rye Chulpan; format: in vivo; details: single compounds, 1% aqueous emulsion, 10 kg/ha; for pest or weed control at 10000 g/ha: read-out: Prozentsatz der Sterilität, Chulpan; for response vs control in vivo at 10000 g/ha: read-out: Prozentsatz des Ansetzens bei freier Bestäubung, Chulpan, control = 100
Description: (§1) Bei Weizen und Tritikale werden Einzelisolatoren verwendet.
Pflanzen von diploidem Roggen Sorte Chulpan werden in der V. oder VI.
Der Verbrauch an Sterilisationsmitteln beträgt 10 kg/ha.

[8] = tested on: Diploider Roggen Sorte Gibrid 1864/74; assay: Field trial of gametocidal activity, diploid rye Gibrid 1864/74; details: 1% aqueous emulsion, 10 kg/ha
[9] = tested on: Tetraploider Roggen Sorte Gibrid 67; assay: Field trial of gametocidal activity, tetraploid rye Gibrid 67; format: in vivo; details: 1% aqueous emulsion, 10 kg/ha; for Prozentsatz des Ansetzens bei freier Bestäubung: control = 100
Description: as §1
Pflanzen von tetraploidem Roggen Sorte Gibrid 67 werden in der V. oder VI.

in vivo [10] = details: mouse, LD50, weisse Mäuse
[11] = tested on: Hirse Sorte Mironovskoe 94; assay: Field trial of gametocidal activity, millet Mironovskoe 94; format: in vivo; details: 1% aqueous emulsion, 10 kg/ha; for response vs control in vivo at 10000 g/ha: control = 100, read-out: Prozentsatz des Ansetzens bei freier Bestäubung
[12] = tested on: Diploider Roggen Sorte Gibrid 340/65; assay: Field trial of gametocidal activity, diploid rye Gibrid 340/65; details: Gibrid 340/65 (text: 312/65), 1% aqueous emulsion, 10 kg/ha
[13] = tested on: Winterweizens Sorte Mironovskaya 808; assay: Field trial of gametocidal activity (anther sterilisation), winter wheat; format: in vivo, Weizen; details: 2% aqueous emulsion, 20 kg/ha; for response vs control in vivo at 20000 g/ha: control = 100, read-out: Prozentsatz des Ansetzens bei freier Bestäubung
[14] = tested on: Sommerweizen Sorte Moskovskaya 35; assay: Field trial of gametocidal activity, spring wheat; format: in vivo, Weizen; details: 1% aqueous emulsion; for Anzahl von Körnern der Ähre bei freier Bestäubung / Anzahl von Körnern der Ähre im Isolator / pest or weed control at 10000 g/ha / percent sterility at 10000 g/ha: 10 kg/ha, V. period; for pest or weed control at 10000 g/ha / percent sterility at 10000 g/ha: read-out: Prozentsatz der Sterilität; for response vs control in vivo: control = 100, read-out: Prozentsatz des Ansetzens bei freier Bestäubung
[15] = tested on: Tetraploider Roggen Sorte Belta; assay: Field trial of gametocidal activity, tetraploid rye Belta; format: in vivo; details: 1% aqueous emulsion, 10 kg/ha
[16] = V. or VI. period, read-out: Prozentsatz der Sterilität
[17] = V. or VI. period of organogenesis
[18] = V. or VI. period, listed as Beispiel 74
[19] = Chulpan, V. or VI. period, listed as Beispiel 54

CCC(CO)(CO)CO [Trimethylolpropan]
Toxizität im Tierversuch [1]: praktisch nichttoxische

OCC(CO)(CO)CBr [Brommethyl-tri(oxymethyl)-methan]
Toxizität im Tierversuch [2]: praktisch nichttoxische

OCC(CO)(CO)CO [Beispiel 58, Pentaerythrit]
Toxizität im Tierversuch [2]: praktisch nichttoxische | Anzahl von Körnern der Ähre bei freier Bestäubung ([3]; V. or VI. period): 45,6 | Anzahl von Körnern der Ähre im Isolator ([3]; V. or VI. period): 0,4 | Prozentsatz des Ansetzens bei freier Bestäubung ([3]; control = 100): 94,4%

CCCCOC(=S)S [Beispiel 44, Kaliumbutylxanthogenat]
Pollensterilität in % [4]: 100% | Ansetzen von Achänen bei freier Bestäubung in % ([4]; V. or VI. period): 85,3% | Ansetzen von Achänen im Isolator bei der Bestäubung mit dem Pollengemisch in % ([4]; V. or VI. period): 0,0% | Anzahl von Körnern der Rispe bei freier Bestäubung [5]: 134,6 | Anzahl von Körnern der Rispe im Isolator [5]: 0,0 | Prozentsatz der Sterilität [5]: 100% | Prozentsatz des Ansetzens bei freier Bestäubung [5]: 91,2% | LD50 (in vivo [6]): 760 mg/kg | Ansetzen von Achänen bei freier Bestäubung in % (Sonnenblume Linie VK 119): 81,5% | Ansetzen von Achänen im Isolator bei der Bestäubung mit dem Pollengemisch in % (Sonnenblume Linie VK 119): 0,0% | Pollensterilität in % (Sonnenblume Linie VK 119): 100% | Anzahl von Körnern der Ähre bei freier Bestäubung ([7]; Chulpan, V. or VI. period): 48,0 | Anzahl von Körnern der Ähre im Isolator ([7]; Chulpan, V. or VI. period): 2,6 | pest or weed control at 10000 g/ha ([7]; V. or VI. period): 96.2% | response vs control in vivo at 10000 g/ha [7]: 84.7%

O=C(O)c1ccc(O)cc1 [Beispiel 28, Monoäthanolaminat der p-Hydroxybenzoesäure]
Anzahl von Körnern der Ähre bei freier Bestäubung ([8]; V. period): 46,7 | Anzahl von Körnern der Ähre im Isolator ([8]; V. period): 1,8 | Prozentsatz der Sterilität ([8]; V. period): 95,6% | Prozentsatz des Ansetzens bei freier Bestäubung ([8]; control = 100): 97,7% | Prozentsatz der Sterilität ([9]; V. or VI. period): 99,7% | Prozentsatz des Ansetzens bei freier Bestäubung [9]: 93,4% | LD50 (in vivo [10]): 3200 mg/kg

CC(C)OC(=S)S [Beispiel 5, Kaliumisopropylxanthogenat]
Pollensterilität in % [4]: 100% | Ansetzen von Achänen im Isolator bei der Bestäubung mit dem Pollengemisch in % ([4]; V. or VI. period): 0,0% | Anzahl von Körnern der Rispe bei freier Bestäubung ([11]; V. or VI. period): 288,6 | Anzahl von Körnern der Rispe im Isolator ([11]; V. or VI. period): 0,0 | pest or weed control at 10000 g/ha [11, 16]: 100% | response vs control in vivo at 10000 g/ha [11]: 76% | LD50 (in vivo [6]): 760 mg/kg | Anzahl von Körnern der Ähre bei freier Bestäubung ([12]; V. and VI. periods): 44,8 | Anzahl von Körnern der Ähre im Isolator ([12]; V. and VI. periods): 0,0 | Prozentsatz der Sterilität ([12]; V. and VI. periods): 100% | Prozentsatz des Ansetzens bei freier Bestäubung ([12]; control = 100): 83,5% | Anzahl von Körnern der Ähre bei freier Bestäubung [13, 17]: 35,2 | Anzahl von Körnern der Ähre im Isolator [13, 17]: 2,3 | pest or weed control at 20000 g/ha ([13]; V. or VI. period of organogenesis, read-out: Prozentsatz der Sterilität): 93.7% | response vs control in vivo at 20000 g/ha [13]: 86.2% | Ansetzen von Achänen bei freier Bestäubung in % (Sonnenblume Linie VK 119): 85,3% | Ansetzen von Achänen im Isolator bei der Bestäubung mit dem Pollengemisch in % (Sonnenblume Linie VK 119): 0,0% | Pollensterilität in % (Sonnenblume Linie VK 119): 100% | Anzahl von Körnern der Ähre bei freier Bestäubung [14]: 24,9 | Anzahl von Körnern der Ähre im Isolator [14]: 2,3 | pest or weed control at 10000 g/ha [14]: 91.5% | response vs control in vivo [14]: 90.5% | Anzahl von Körnern der Ähre bei freier Bestäubung ([7]; Chulpan, V. or VI. period): 51,8 | Anzahl von Körnern der Ähre im Isolator ([7]; Chulpan, V. or VI. period): 0,3 | pest or weed control at 10000 g/ha ([7]; V. or VI. period): 99.4% | response vs control in vivo at 10000 g/ha [7]: 91.4%

CCC(CO)(CO)CBr [I-Brom-2,2-di-methylol-butan]
Toxizität im Tierversuch [1]: praktisch nichttoxische

O=C(O)c1ccccc1F [Beispiel 24, Diätha- nolaminat der o-Fluorbenzoesäure]
Anzahl von Körnern der Rispe bei freier Bestäubung ([11]; V. or VI. period): 348,6 | Anzahl von Körnern der Rispe im Isolator ([11]; V. or VI. period): 0,0 | pest or weed control at 10000 g/ha [11, 16]: 100% | response vs control in vivo at 10000 g/ha [11]: 91.2% | Anzahl von Körnern der Ähre bei freier Bestäubung [15, 18]: 43,8 | Anzahl von Körnern der Ähre im Isolator [15, 18]: 0,9 | pest or weed control at 10000 g/ha [15, 16]: 97.8% | response vs control in vivo at 10000 g/ha ([15]; control = 100, read-out: Prozentsatz des Ansetzens bei freier Bestäubung): 98.9% | Anzahl von Körnern der Ähre bei freier Bestäubung [14]: 27,1 | Anzahl von Körnern der Ähre im Isolator [14]: 2,2 | pest or weed control at 10000 g/ha [14]: 91.9% | response vs control in vivo [14]: 98.5% | LD50 (weisse Mäuse; weisse Mäuse, listed as Diäthanolaminsalz der o-Fluarbenzoesäure): 500 mg/kg Tiergewicht | Anzahl von Körnern der Ähre bei freier Bestäubung [7, 19]: 54,0 | Anzahl von Körnern der Ähre im Isolator [7, 19]: 0,0 | pest or weed control at 10000 g/ha ([7]; V. or VI. period): 100% | response vs control in vivo at 10000 g/ha [7]: 95.2%

OCC(O)CSc1ccc(F)cc1 (centres unmarked) [Beispiel I3]
Anzahl von Körnern der Rispe bei freier Bestäubung [5]: 128,7 | Anzahl von Körnern der Rispe im Isolator [5]: 0,0 | Prozentsatz der Sterilität [5]: 100% | Prozentsatz des Ansetzens bei freier Bestäubung [5]: 87,7% | Anzahl von Körnern der Ähre bei freier Bestäubung [13, 17]: 38,2 | Anzahl von Körnern der Ähre im Isolator [13, 17]: 3,2 | response vs control in vivo at 20000 g/ha [13]: 94.3% | Anzahl von Körnern der Ähre bei freier Bestäubung [14]: 26,4 | Anzahl von Körnern der Ähre im Isolator [14]: 2,0 | percent sterility at 10000 g/ha [14]: 92.3% | response vs control in vivo [14]: 96% | LD50 (in vivo [10]): ~400 mg/kg | LD50 (weisse Mäuse; mouse, in vivo): 400 mg/kg Tiergewicht

OCC(O)CSc1ccccc1F (centres unmarked) [Beispiel 7, 3-(2'-Fluorphenylthio)-propandiol-I,2]
Anzahl von Körnern der Rispe bei freier Bestäubung ([11]; V. or VI. period): 300,5 | Anzahl von Körnern der Rispe im Isolator ([11]; V. or VI. period): 0,0 | percent pollen sterility at 10000 g/ha [11, 16]: 100% | response vs control in vivo at 10000 g/ha [11]: 79.2% | Anzahl von Körnern der Ähre bei freier Bestäubung [13, 17]: 36,7 | Anzahl von Körnern der Ähre im Isolator [13, 17]: 0,0 | response vs control in vivo at 20000 g/ha [13]: 90.6% | Anzahl von Körnern der Ähre bei freier Bestäubung ([9]; V. or VI. period): 42,2 | Anzahl von Körnern der Ähre im Isolator ([9]; V. or VI. period): 0,0 | Prozentsatz des Ansetzens bei freier Bestäubung [9]: 94,4% | Anzahl von Körnern der Ähre bei freier Bestäubung [14]: 24,6 | Anzahl von Körnern der Ähre im Isolator [14]: 0,0 | percent sterility at 10000 g/ha [14]: 100% | response vs control in vivo [14]: 89.5% | LD50 (in vivo [10]): 400 mg/kg | Anzahl von Körnern der Ähre bei freier Bestäubung ([7]; Chulpan, V. or VI. period): 53,4 | Anzahl von Körnern der Ähre im Isolator ([7]; Chulpan, V. or VI. period): 0,6 | percent sterility at 10000 g/ha ([7]; Chulpan, V. or VI. period, read-out: Prozentsatz der Sterilität): 98.8% | response vs control in vivo at 10000 g/ha [7]: 94.2%
